Data published in PubChem BioAssay (NCI).
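Following 48 hours of exposure in 96-well plates, responses at five concentrations were used to interpolate endpoints linearly. The concentration for 50% growth inhibition is given as GI50. TGI: total growth inhibition.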

Key:
Experiment in all cases: growth of human tumour cells (NCI), 48 h
[1] = tested on: SNB-75 CNS
[2] = tested on: NCI/ADR-RES ovarian
[3] = tested on: SK-MEL-5 melanoma
[4] = tested on: K-562 leukemia
[5] = tested on: CAKI-1 renal
[6] = tested on: CCRF-CEM leukemia
[7] = tested on: MDA-MB-231 breast
[8] = tested on: SF-295 CNS
[9] = tested on: SN12C renal
[10] = tested on: OVCAR-5 ovarian
[11] = tested on: HCT-15 colon
[12] = tested on: SK-MEL-2 melanoma
[13] = tested on: SNB-19 CNS
[14] = tested on: SF-268 CNS
[15] = tested on: SK-MEL-28 melanoma
[16] = tested on: OVCAR-3 ovarian
[17] = tested on: U251 CNS
[18] = tested on: SW-620 colon
[19] = tested on: HS 578T breast
[20] = tested on: OVCAR-4 ovarian
[21] = tested on: OVCAR-8 ovarian
[22] = tested on: IGROV1 ovarian
[23] = tested on: COLO 205 colon
[24] = tested on: RPMI-8226 leukemia
[25] = tested on: EKVX NSCLC
[26] = tested on: SR leukemia
[27] = tested on: MALME-3M melanoma
[28] = tested on: MDA-MB-468 breast
[29] = tested on: BT-549 breast
[30] = tested on: KM12 colon
[31] = tested on: A498 renal
[32] = tested on: T-47D breast
[33] = tested on: M14 melanoma
[34] = tested on: DU-145 prostate
[35] = tested on: RXF 393 renal
[36] = tested on: HCT-116 colon
[37] = tested on: NCI-H460 lung
[38] = tested on: HT29 colon
[39] = tested on: UO-31 renal
[40] = tested on: UACC-257 melanoma
[41] = tested on: A549 NSCLC
[42] = tested on: SK-OV-3 ovarian
[43] = tested on: NCI-H23 lung
[44] = tested on: NCI-H226 lung
[45] = tested on: UACC-62 melanoma
[46] = tested on: HOP-62 NSCLC
[47] = tested on: HCC-2998 colon
[48] = tested on: SF-539 CNS
[49] = tested on: TK-10 renal
[50] = tested on: HOP-92 NSCLC
[51] = tested on: ACHN renal
[52] = tested on: LOX IMVI melanoma
[53] = tested on: MOLT-4 leukemia
[54] = tested on: HL-60(TB) leukemia
[55] = tested on: MCF7 breast
[56] = tested on: PC-3 prostate
[57] = tested on: 786-0 renal
[58] = tested on: NCI-H522 lung
[59] = tested on: MDA-MB-435

O=C(Cn1c(-c2ccccc2)nc2ccccc21)N=Nc1c(O)[nH]c2ccc(Cl)cc12
GI50 [1]: 10.3 µM | TGI [1]: 23.6 µM | GI50 [2]: 12.8 µM | TGI [2]: 29.7 µM | GI50 [3]: 14.6 µM | TGI [3]: 31.3 µM | GI50 [4]: 6.91 µM | TGI [4]: > 100 µM | GI50 [5]: 13.5 µM | TGI [5]: 27 µM | GI50 [6]: 20 µM | TGI [6]: > 100 µM | GI50 [7]: 11.9 µM | TGI [7]: 24.9 µM | GI50 [8]: 12.3 µM | TGI [8]: 26.1 µM | GI50 [9]: 15.5 µM | TGI [9]: 31.1 µM | GI50 [10]: 18.8 µM | TGI [10]: 48 µM | GI50 [11]: 9.6 µM | TGI [11]: 24 µM | GI50 [12]: 17.4 µM | TGI [12]: 36.5 µM | GI50 [13]: 16.7 µM | TGI [13]: 33.7 µM | GI50 [14]: 16.1 µM | TGI [14]: 47.9 µM | GI50 [15]: 14.4 µM | TGI [15]: 30.2 µM | GI50 [16]: 16.1 µM | TGI [16]: 37.2 µM | GI50 [17]: 16.9 µM | TGI [17]: 33.4 µM | GI50 [18]: 15.5 µM | TGI [18]: 37.7 µM | GI50 [19]: 16.5 µM | TGI [19]: 49.6 µM | GI50 [20]: 15.3 µM | TGI [20]: 34.2 µM | GI50 [21]: 16.1 µM | TGI [21]: 34.5 µM | GI50 [22]: 14.4 µM | TGI [22]: 29.9 µM | GI50 [23]: 21 µM | TGI [23]: 47.9 µM | GI50 [24]: 20.5 µM | TGI [24]: > 100 µM | GI50 [25]: 11 µM | TGI [25]: 25.6 µM | GI50 [26]: 8.56 µM | TGI [26]: > 100 µM | GI50 [27]: 12.2 µM | TGI [27]: 25.5 µM | GI50 [28]: 5.77 µM | TGI [28]: 18.9 µM | GI50 [29]: 16.7 µM | TGI [29]: 35.7 µM | GI50 [30]: 19.2 µM | TGI [30]: 62.2 µM | GI50 [31]: 13.6 µM | TGI [31]: 27.3 µM | GI50 [32]: 11.6 µM | TGI [32]: 30 µM | GI50 [33]: 17.7 µM | TGI [33]: 40.4 µM | GI50 [34]: 18.4 µM | TGI [34]: 40.2 µM | GI50 [35]: 4.99 µM | TGI [35]: 18.6 µM | GI50 [36]: 10 µM | TGI [36]: 29.3 µM | GI50 [37]: 15.4 µM | TGI [37]: 33 µM | GI50 [38]: 14.7 µM | TGI [38]: 30.7 µM | GI50 [39]: 11.4 µM | TGI [39]: 24.1 µM | GI50 [40]: 14.1 µM | TGI [40]: 28.6 µM | GI50 [41]: 13.6 µM | TGI [41]: 30.8 µM | GI50 [42]: 19.3 µM | TGI [42]: 38.2 µM | GI50 [43]: 13.7 µM | TGI [43]: 28.2 µM | GI50 [44]: 12.1 µM | TGI [44]: 30.2 µM | GI50 [45]: 12.4 µM | TGI [45]: 25.5 µM | GI50 [46]: 17.2 µM | TGI [46]: 37.7 µM | GI50 [47]: 13.4 µM | TGI [47]: 27.5 µM | GI50 [48]: 14.7 µM | TGI [48]: 30.5 µM | GI50 [49]: 17.5 µM | TGI [49]: 35.6 µM | GI50 [50]: 13.6 µM | TGI [50]: 31.4 µM | GI50 [51]: 16 µM | TGI [51]: 34 µM | GI50 [52]: 14.5 µM | TGI [52]: 28.6 µM | GI50 [53]: 6.41 µM | TGI [53]: > 100 µM | GI50 [54]: 24 µM | TGI [54]: > 100 µM | GI50 [55]: 10.9 µM | TGI [55]: 25.2 µM | GI50 [56]: 12.7 µM | TGI [56]: 33.8 µM | GI50 [57]: 17.9 µM | TGI [57]: 39 µM | GI50 [58]: 10.3 µM | TGI [58]: 25.1 µM | GI50 [59]: 9.18 µM | TGI [59]: 26 µM
